This test deals with P388 leukemia ip, CD2F1 mice, survival T/C. The test can be described thus: NCI In Vivo Anticancer Drug Screen. Data for tumor model P388 Leukemia (intraperitoneal) in CD2F1 (CDF1) mice. Particulars: endpoint: median survival time, higher = longer survival. Put shortly:
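Mice carrying the transplanted tumor received test compound or vehicle. Survival was recorded in each group, and the value is the treated-group measurement divided by that of the vehicle-treated control group.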

Where [1] appears, read: dose: 50.0 mg/kg/injection, schedule: Q01DX009 (ip), vehicle: Klucel (hydroxypropylcellulose) (HPC).
[2] abbreviates: dose: 100.0 mg/kg/injection, schedule: Q01DX009 (ip), vehicle: Klucel (hydroxypropylcellulose) (HPC).
Setting [3] is: dose: 100.0 mg/kg/injection, schedule: Q04DX003 (ip), vehicle: Klucel (hydroxypropylcellulose) (HPC).
Where [4] appears, read: dose: 200.0 mg/kg/injection, schedule: Q04DX003 (ip), vehicle: Klucel (hydroxypropylcellulose) (HPC).
Where [5] appears, read: dose: 50.0 mg/kg/injection, schedule: Q01DX009 (ip), vehicle: saline with Tween-80.
The mark [6] stands for this setting: dose: 100.0 mg/kg/injection, schedule: Q01DX009 (ip), vehicle: saline with Tween-80.
The mark [7] stands for this setting: dose: 200.0 mg/kg/injection, schedule: Q01DX009 (ip), vehicle: saline with Tween-80.
The mark [8] stands for this setting: dose: 50.0 mg/kg/injection, schedule: Q01DX005 (ip), vehicle: Klucel (hydroxypropylcellulose) (HPC).
The mark [9] stands for this setting: dose: 100.0 mg/kg/injection, schedule: Q01DX005 (ip), vehicle: Klucel (hydroxypropylcellulose) (HPC).
Setting [10] is: dose: 200.0 mg/kg/injection, schedule: Q01DX005 (ip), vehicle: Klucel (hydroxypropylcellulose) (HPC).
Setting [11] is: dose: 200.0 mg/kg/injection, schedule: Q01DX009 (ip), vehicle: Klucel (hydroxypropylcellulose) (HPC).
The mark [12] stands for this setting: dose: 100.0 mg/kg/injection, schedule: Q04DX003 (ip), vehicle: saline with Tween-80.
The mark [13] stands for this setting: dose: 200.0 mg/kg/injection, schedule: Q04DX003 (ip), vehicle: saline with Tween-80.
Setting [14] is: dose: 400.0 mg/kg/injection, schedule: Q04DX003 (ip), vehicle: Klucel (hydroxypropylcellulose) (HPC).
Where [15] appears, read: dose: 12.5 mg/kg/injection, schedule: Q01DX009 (ip), vehicle: saline with Tween-80.
[16] abbreviates: dose: 25.0 mg/kg/injection, schedule: Q01DX009 (ip), vehicle: saline with Tween-80.
[17] abbreviates: dose: 50.0 mg/kg/injection, schedule: Q04DX003 (ip), vehicle: Klucel (hydroxypropylcellulose) (HPC).

Molecules are shown by their SMILES. “And” between values parts separate entries of the source, which are not always exact repeats. Equal values may be shown once. Toxic doses and inconclusive results are not listed.

These results are taken from PubChem BioAssay AID330 (DTP/NCI, 2004).

Turning to `CC(=O)NC1CC(=O)N(c2ccc(Cl)cc2)C1=O` (stereo not drawn), the T/C reads like this: under setting [1], 96 % of control; under setting [2], 96 % of control; under setting [3], 102 % of control; under setting [4], 101 % of control.

With `CCNCCNc1ccc(NCCNCC)c2c1C(=O)c1ccccc1C2=O`, the T/C runs as follows: (dose: 4.0 mg/kg/injection, schedule: Q01DX009 (ip), vehicle: acid diluted with saline) 157 % of control; (dose: 8.0 mg/kg/injection, schedule: Q01DX009 (ip), vehicle: acid diluted with saline) 174 % of control; (dose: 12.5 mg/kg/injection, schedule: Q01DX009 (ip), vehicle: other) 168 % of control; (dose: 16.0 mg/kg/injection, schedule: Q01DX009 (ip), vehicle: acid diluted with saline) 166 % of control.

Regarding `CCSCC1C(=O)C23C(O)C1CCC2C12COC3(O)C(O)C1C(C)(C)CCC2O` (stereo not drawn), the T/C runs as follows: (dose: 22.5 mg/kg/injection, schedule: Q01DX009 (ip), vehicle: saline with Tween-80) 108 % of control; (dose: 45.0 mg/kg/injection, schedule: Q01DX009 (ip), vehicle: saline with Tween-80) 112 % of control; (dose: 90.0 mg/kg/injection, schedule: Q01DX009 (ip), vehicle: saline with Tween-80) 94 % of control.

Take `Cc1ccc2c(c1)sc1nncn12`: the T/C is, setting by setting: under setting [1], 94 % of control; under setting [2], 105 % of control.

`CCOC(=O)c1c(C)cc2c(CO)n[nH]c(=O)c2c1C`: the T/C by setting is: under setting [5], 102 % of control; under setting [6], 100 % of control; under setting [7], 99 % of control.

In the case of `CC1(C)COC2(CC3(C)CC(=O)CC3(C)C2)OC1` (stereo not drawn), the T/C by setting is: under setting [5], 105 % of control; under setting [6], 90 % of control; under setting [7], 102 % of control.

For the molecule `O=C1c2ccccc2C(=O)N1Cc1ccc(Cl)cc1[N+](=O)[O-]`, the T/C is 103 % of control under setting [8], 109 % of control under setting [9] and 98 % of control under setting [10].

Take `CCOC(=O)C1=C(C)O/C(=C/c2ccccc2)C1=O`: the T/C by setting is: under setting [1], 112 % of control; under setting [2], 102 % of control; under setting [11], 92 % of control.

As for `COc1cc(/C=C(\C)[N+](=O)[O-])cc(Br)c1O`, the T/C under setting [12] is 100 % of control; the T/C under setting [13] is 109 % of control; the T/C (dose: 400.0 mg/kg/injection, schedule: Q04DX003 (ip), vehicle: saline with Tween-80) is 94 % of control.

`O=C1CSC(=S)N1Cc1ccncc1`: the T/C is 97 % of control under setting [5], 98 % of control under setting [6] and 101 % of control under setting [7].

As for `COc1cc2c(c(OC)c1OC)C1=NNC(=O)C1(C)CC2` (stereo not drawn), the T/C was 91 % of control under setting [3], 88 % of control under setting [4] and 92 % of control under setting [14].

On to `CC1=C(C#N)C2(N)OC1(C)C1C(=O)C=CC(=O)C12` (stereo not drawn), for which the T/C was 110 % of control (dose: 50.0 mg/kg/injection, schedule: Q01DX005 (ip), vehicle: saline with Tween-80); 107 % of control (dose: 100.0 mg/kg/injection, schedule: Q01DX005 (ip), vehicle: saline with Tween-80); 108 % of control (dose: 200.0 mg/kg/injection, schedule: Q01DX005 (ip), vehicle: saline with Tween-80).

Regarding `CCCCN1C(=O)C2C3C=CC(C2C1=O)C1C2C(=O)N(CCCC)C(=O)C2C31` (stereo not drawn), the T/C is, setting by setting: (dose: 100.0 mg/kg/injection, schedule: Q01DX001 (ip), vehicle: saline with Tween-80) 93 % of control; (dose: 200.0 mg/kg/injection, schedule: Q01DX001 (ip), vehicle: saline with Tween-80) 93 % of control; (dose: 400.0 mg/kg/injection, schedule: Q01DX001 (ip), vehicle: saline with Tween-80) 90 % of control.

With `CC(C)(O)c1cc(=O)n(Cc2ccccc2)[nH]1`, the T/C was 106 % of control under setting [8], 109 % of control under setting [9] and 108 % of control under setting [10].

Turning to `COc1ccc(C(=O)c2ncccc2C(=O)O)cc1OC`, the T/C (dose: 25.0 mg/kg/injection, schedule: Q01DX009 (ip), vehicle: other) was 93 % of control; the T/C (dose: 50.0 mg/kg/injection, schedule: Q01DX009 (ip), vehicle: other) was 88 % of control; the T/C (dose: 100.0 mg/kg/injection, schedule: Q01DX009 (ip), vehicle: other) was 100 % of control; the T/C (dose: 200.0 mg/kg/injection, schedule: Q01DX009 (ip), vehicle: other) was 97 % of control; the T/C (dose: 400.0 mg/kg/injection, schedule: Q01DX009 (ip), vehicle: other) was 94 % of control.

`O=[N+]([O-])CC(OCCCCCCCCCCO)C(Cl)(Cl)Cl` (stereo not drawn): the T/C under setting [5] was 104 % of control, the T/C under setting [6] is 100 % of control and the T/C under setting [7] was 100 % of control.

As for `O=C(CCCc1ccc(N(CCCl)CCCl)cc1)OCCOc1ccccc1`, the T/C was 155 % of control under setting [15]; 223 % of control under setting [16]; 174 % of control and 200 % of control under setting [5].

On to `c1ccc(C2=NNC(c3ccccc3)=NN2)cc1`, for which the T/C by setting is: (dose: 0.78 mg/kg/injection, schedule: Q01DX009 (ip), vehicle: saline with Tween-80) 107 % of control; (dose: 1.56 mg/kg/injection, schedule: Q01DX009 (ip), vehicle: saline with Tween-80) 95 % of control; (dose: 3.12 mg/kg/injection, schedule: Q01DX009 (ip), vehicle: saline with Tween-80) 89 % of control; under setting [16], 93 % of control; under setting [5], 100 % of control; under setting [17], 97 % of control. In addition, the T/C by setting is: under setting [6], 90 % of control; under setting [3], 104 % of control; under setting [4], 97 % of control; under setting [14], 94 % of control.

Consider `CCCCCCC(Cn1ccnc1)c1ccc(Br)cc1` (stereo not drawn), for which the T/C is 100 % of control under setting [12] and 91 % of control under setting [13].

Consider `C/C(=N/NC(=O)CCl)c1ccccc1`, for which the T/C (dose: 75.0 mg/kg/injection, schedule: Q01DX009 (ip), vehicle: saline with Tween-80) was 108 % of control.

Consider `CCC1CCC2COCN2C1` (stereo not drawn), for which the T/C runs as follows: (dose: 25.0 mg/kg/injection, schedule: Q01DX005 (ip), vehicle: saline) 104 % of control; (dose: 50.0 mg/kg/injection, schedule: Q01DX005 (ip), vehicle: saline) 120 % of control; (dose: 200.0 mg/kg/injection, schedule: Q01DX005 (ip), vehicle: saline) 117 % of control and 118 % of control.

As to `c1cn[nH]c1`, the T/C was 93 % of control (dose: 25.0 mg/kg/injection, schedule: Q01DX009 (ip), vehicle: saline); 101 % of control (dose: 50.0 mg/kg/injection, schedule: Q01DX009 (ip), vehicle: saline); 111 % of control (dose: 100.0 mg/kg/injection, schedule: Q01DX009 (ip), vehicle: saline).

Consider `O=c1[nH]cc(F)c(=O)[nH]1.[Tl]`, for which the T/C (dose: 0.78 mg/kg/injection, schedule: Q01DX009 (ip), vehicle: Klucel (hydroxypropylcellulose) (HPC)) is 99 % of control; the T/C (dose: 1.56 mg/kg/injection, schedule: Q01DX009 (ip), vehicle: Klucel (hydroxypropylcellulose) (HPC)) was 103 % of control; the T/C (dose: 3.13 mg/kg/injection, schedule: Q01DX009 (ip), vehicle: Klucel (hydroxypropylcellulose) (HPC)) was 115 % of control.

Regarding `CCCCCCCC/C=C\CCCCCCCC(=O)O`, the T/C reads like this: under setting [17], 104 % of control; under setting [3], 103 % of control and 97 % of control; under setting [4], 102 % of control and 93 % of control; under setting [14], 92 % of control.

On to `C(=C\c1cc2ccc(C3=NCCN3)cc2[nH]1)/c1ccc(C2=NCCN2)cc1`, for which, under “dose: 6.25 mg/kg/injection, schedule: Q04DX003 (ip), vehicle: saline”, the T/C was 118 % of control.

As to `CC1=CC(=Nc2ccc(N(C)C)cc2)C=CC1=O`, the T/C is 104 % of control and 115 % of control (dose: 3.13 mg/kg/injection, schedule: Q01DX009 (ip), vehicle: saline with Tween-80); 107 % of control and 115 % of control (dose: 6.25 mg/kg/injection, schedule: Q01DX009 (ip), vehicle: saline with Tween-80); 111 % of control and 114 % of control under setting [15].

On to `CCOC(=O)/C=C/c1c[nH]c(C(=O)OCC)c1`, for which the T/C is 93 % of control under setting [1]; 91 % of control under setting [2]; 93 % of control under setting [11]; 108 % of control (dose: 400.0 mg/kg/injection, schedule: Q01DX009 (ip), vehicle: Klucel (hydroxypropylcellulose) (HPC)).
